Data on 3 molecules can be found in ChEMBL document CHEMBL5233223, “Dammarane-type leads panaxadiol and protopanaxadiol for drug discovery: Biological activity and structural modification” (Eur J Med Chem, 2020).

Some results are limits rather than exact numbers.

Series [1] has as its system LNCaP C4-2. Kind of series: Antiproliferative activity against human LNCaP C4-2 cells assessed as cell growth inhibition in presence of calcitriol. Format: functional, cell-based.
The subject of series [2] is LNCaP. Nature of the series: Antiproliferative activity against human LNCAP cells assessed as cell growth inhibition. The series is classed as functional, cell-based.
A further series has as its system SF-188. Nature of the series: Antiproliferative activity against human SF-188 cells assessed as inhibition of cell proliferation. Format: functional, cell-based.
Series [3] addresses Stromelysin-1 (Homo sapiens) (UniProt P08254). Nature of the series: Inhibition of MMP-3 (unknown origin) at 5 uM.
A short description of series [4]: Cytotoxicity against human PBMC assessed as cell growth inhibition. The series is classed as toxicity, cell-based. The following applies: PBMC (peripheral blood mononuclear cells).
The next series deals with RL95-2. Nature of the series: Induction of autophagy in human RL95-2 cells assessed as ratio of LC3bII/LC3bI levels. The series is classed as functional.
Series [5] in a line: Antiproliferative activity against human Ectopic endometrial stromal cell assessed as cell growth inhibition. Format: functional, cell-based.
In a further series the test system is SW480. Nature of the series: Antiproliferative activity against human SW480 cells assessed as cell growth inhibition by crystal violet staining based assay. The series is classed as functional.
In the next series the target is Estrogen receptor (Homo sapiens, UniProt P03372). Kind of series: Displacement of [3H]-17beta-estradiol to estrogen receptor (unknown origin). On the technique in general: In a radioligand displacement assay an active substance lowers the binding of a labelled ligand.
The target in series [6] is Stromelysin-1 (Homo sapiens) (UniProt P08254). Kind of series: Inhibition of MMP-3 (unknown origin) at 10 uM.
In series [7] the test system is HCT-116. Kind of series: Antiproliferative activity against human HCT-116 cells assessed as cell growth inhibition by crystal violet staining based assay. Format: functional.
Series [8] deals with LNCaP. Nature of the series: Antiproliferative activity against human LNCAP cells assessed as cell growth inhibition in presence of calcitriol. Format: functional, cell-based.
In another series the test system is RS4-11. Kind of series: Antiproliferative activity against human RS4-11 cells assessed as cell growth inhibition. Format: functional, cell-based.
Series [9] deals with HCT-116. Kind of series: Antiproliferative activity against human HCT-116 cells assessed as cell growth inhibition by crystal violet staining based assay relative to control. Format: functional. Details: scale not given: the % may be the effect or the level left.
Series [10] deals with LNCaP C4-2. Kind of series: Antiproliferative activity against human LNCaP C4-2 cells assessed as cell growth inhibition. The series is classed as functional, cell-based.
For another series, the system named is Ishikawa. Nature of the series: Induction of autophagy in human Ishikawa cells assessed as ratio of LC3bII/LC3bI levels. Format: functional.
Series [11] is described as follows: Antiproliferative activity against human U-87 MG cells assessed as inhibition of cell proliferation. The series is classed as functional, cell-based, U-87MG ATCC.
Another series has as its system HT-1080. Kind of series: Antiproliferative activity against human HT-1080 cells assessed as inhibition of cell proliferation. The series is classed as functional, cell-based.
The subject of a further series is REH. Kind of series: Antiproliferative activity against human REH cells assessed as cell growth inhibition. Format: functional, cell-based.
The subject of a further series is HepG2 2.2.15. Nature of the series: Antiproliferative activity against human HepG2.2.15 cells assessed as cell growth inhibition. The series is classed as functional, cell-based.
Series [12] relates to Hepatitis B virus. Kind of series: Antiviral activity against Hepatitis B virus infected in human HepG2.2.15 cells assessed as inhibition of HBeAg level by MTT assay. The series is classed as functional, organism-based. The following applies: HepG2 2.2.15.
The subject of series [13] is Hepatitis B virus. Kind of series: Antiviral activity against Hepatitis B virus infected in human HepG2.2.15 cells assessed as inhibition of viral DNA replication by MTT assay. The series is classed as functional, organism-based. The following applies: HepG2 2.2.15. For orientation: Tetrazolium assays rely on reduction of a dye to a coloured formazan, in cell work by metabolically active cells.

Series [14] has as its system Hepatitis B virus. Nature of the series: Antiviral activity against Hepatitis B virus infected in human HepG2.2.15 cells assessed as inhibition of HBsAg level by MTT assay. Format: functional, organism-based. The following applies: HepG2 2.2.15.
The subject of a further series is HepG2. Kind of series: Antiproliferative activity against human HepG2 cells assessed as cell growth inhibition. Format: functional, cell-based.
A further series relates to A549. Nature of the series: Antiproliferative activity against human A549 cells assessed as cell growth inhibition. Format: functional, cell-based.
In the next series the test system is HL-60. Nature of the series: Antiproliferative activity against human HL-60 cells assessed as cell growth inhibition. Format: functional, cell-based.

Stromelysin-1 (Homo sapiens), sequence (P08254 100-477 limits assumed): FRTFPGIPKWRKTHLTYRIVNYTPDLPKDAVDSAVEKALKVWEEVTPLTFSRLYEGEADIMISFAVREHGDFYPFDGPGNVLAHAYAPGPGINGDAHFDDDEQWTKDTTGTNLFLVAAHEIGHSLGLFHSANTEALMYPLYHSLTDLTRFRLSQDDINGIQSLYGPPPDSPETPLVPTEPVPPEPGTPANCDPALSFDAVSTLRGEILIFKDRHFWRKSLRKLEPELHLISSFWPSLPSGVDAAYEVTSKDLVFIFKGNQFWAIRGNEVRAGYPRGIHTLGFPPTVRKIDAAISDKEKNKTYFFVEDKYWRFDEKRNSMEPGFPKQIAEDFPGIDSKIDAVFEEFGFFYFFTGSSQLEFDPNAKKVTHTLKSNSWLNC
Estrogen receptor, sequence (P03372 whole entry): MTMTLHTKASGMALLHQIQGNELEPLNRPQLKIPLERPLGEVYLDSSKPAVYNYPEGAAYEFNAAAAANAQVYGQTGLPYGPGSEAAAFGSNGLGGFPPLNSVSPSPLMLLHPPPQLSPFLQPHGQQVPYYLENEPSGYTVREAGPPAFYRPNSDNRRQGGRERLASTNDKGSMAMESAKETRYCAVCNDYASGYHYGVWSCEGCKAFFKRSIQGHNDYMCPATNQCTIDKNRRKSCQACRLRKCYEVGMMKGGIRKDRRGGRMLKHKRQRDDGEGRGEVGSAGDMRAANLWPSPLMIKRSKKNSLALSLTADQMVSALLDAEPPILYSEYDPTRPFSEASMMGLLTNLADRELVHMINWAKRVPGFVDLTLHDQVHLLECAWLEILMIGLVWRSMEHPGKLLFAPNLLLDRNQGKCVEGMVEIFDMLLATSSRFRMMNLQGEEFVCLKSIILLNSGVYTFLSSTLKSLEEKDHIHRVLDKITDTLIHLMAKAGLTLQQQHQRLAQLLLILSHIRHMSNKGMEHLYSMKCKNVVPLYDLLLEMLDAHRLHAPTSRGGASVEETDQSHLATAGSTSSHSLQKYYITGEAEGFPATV

Broadly, the IC50 is the point on the concentration scale where inhibition reaches its midpoint. Broadly, the inhibition is the drop in the measured response relative to a control, in per cent. Regarding `CC(C)=CCC[C@](C)(O)C1CC[C@]2(C)C1[C@H](O)CC1[C@@]3(C)CC[C@H](O)C(C)(C)C3CC[C@]12C` (stereo partly specified), the IC50 in the series with LNCaP C4-2 [1] was 23 µM; with LNCaP [2], 41 µM; in the series on SF-188 it was 24 µM; in series [4] it was 116 µM; in series [5] it was 30.6 µM; in the series on SW480, 8.99 µM. Moreover, the IC50 on Estrogen receptor was 26.3 µM; in the series on HCT-116 [7], 4.69 µM; in the series on LNCaP [8] it was 53 µM; in the series on RS4-11, 27.2 µM; in the series with LNCaP C4-2 [10] it was 13 µM; in series [11] it was 38 µM. Besides, the figures for the concentration for half-maximal inhibition (IC50) in the series on HT-1080 and in the series with REH were 76.8 µM and 24.4 µM, respectively. The inhibition in series [3] is 40.3%; in series [6] it was 68.6%. Also, the Ratio in the series with RL95-2 is reported as 1.93; in the series with Ishikawa, 0.91. Also, the Activity in the series with HCT-116 [9] is <30%.
Consider `CC1(C)CCC[C@](C)(C2CC[C@]3(C)C2[C@H](O)CC2[C@@]4(C)CC[C@H](OC(=O)c5cccs5)C(C)(C)C4CC[C@]23C)O1` (stereo partly specified), for which the IC50 amounted to 7.27 µM in the series on HepG2 2.2.15, 18.2 µM with Hepatitis B virus [12], 16.5 µM in the series with Hepatitis B virus [13] and 30.8 µM with Hepatitis B virus [14].
Consider `CCCCCCC/C=C\CCCCCCCC(=O)O[C@H]1CC[C@@]2(C)C(CC[C@]3(C)C2C[C@@H](O)C2C([C@@](C)(O)CCC=C(C)C)CC[C@]23C)C1(C)C` (stereo partly specified), for which the 50% inhibitory concentration (IC50) with HepG2 stood at 9.2 µM; with A549, 29.7 µM; in the series on HL-60 it was 11.6 µM.
